Measurements: paper PMC3145798, “The Extracytoplasmic Domain of the Mycobacterium tuberculosis Ser/Thr Kinase PknB Binds Specific Muropeptides and Is Required for PknB Localization” (PLoS Pathogens, 2011)
Entries after “also recorded” stand apart in the source; their conditions may differ. *1 amine or outer side, *2 acyl side, *3 side chain or, on linkers, in order; H or OH if unused. Where a SMILES comes first, the peptide text is derived from it. [ ]: non-standard residue; d: D form. Mur = C[C@@H](O[C@H]1[C@H](O)[C@@H](CO)OC(O)[C@@H]1N[*:1])C(=O)[*:2]; d(isoGln) = NC(=O)[C@@H](CCC(=O)[*:2])N[*:1]

Experiments:
[1] = target: T1, extracytoplasmic domain of M. tuberculosis PknB (ED-PknB, PASTA domains) (Mycobacterium tuberculosis, UniProt P9WI81); experiment: Surface plasmon resonance (Biacore) binding of synthetic muropeptides to immobilized ED-PknB; design: ka1: unit not given here; details: for Kd / ka1 / ka2 / kd1 / kd2: two-state binding model; for ka1 / ka2 / kd1 / kd2: 25°C; for decrease in binding compared to compound 6a: ratio of affinities relative to 6a
T1 construct: GST (N, cleaved yes); made in house; host or cells: Escherichia coli BL21 (DE3)
T1 sequence (P9WI81 354-626): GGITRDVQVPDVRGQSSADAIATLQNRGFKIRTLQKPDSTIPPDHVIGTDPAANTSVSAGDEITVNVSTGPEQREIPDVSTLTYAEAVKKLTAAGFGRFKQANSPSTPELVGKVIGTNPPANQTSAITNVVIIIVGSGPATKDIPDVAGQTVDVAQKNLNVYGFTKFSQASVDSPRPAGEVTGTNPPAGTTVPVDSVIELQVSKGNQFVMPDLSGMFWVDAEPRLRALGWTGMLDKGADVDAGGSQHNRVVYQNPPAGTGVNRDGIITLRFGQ

[2] = tested on: dormant M. tuberculosis H37Rv cells; experiment: Dormancy and resuscitation assay (most probable number); format: cell-based, Mycobacterium tuberculosis H37Rv; details: for Fold increase in viable cell number relative to cultures grown in Sauton's medium without additive: muropeptide at 10 times the KD of 6c, spent medium 50%, MPN after 2 months at 37°C; for increase in viability relative to cells in fresh medium alone: two independent experiments (6 or 9 months hypoxic), experiment not assigned, most probable number analysis
[3] = Table S1, SPR, ED-PknB on CM-5 chip (5,000 RU)
[4] = Experiment 1: 6 month old dormant culture
[5] = Experiment 2: 9 month old dormant culture
[6] = SPR Biacore T100, ED-PknB on CM-5 chip (5,000 RU), HBS-EP pH 7.4, 25°C, Table 1 and text

In the case of `CC(=O)N[C@H]1C(O)O[C@H](CO)[C@@H](O)[C@@H]1O[C@H](C)C(=O)N[C@@H](C)C(=O)N[C@H](CCC(=O)N[C@@H](CCC[C@@H](N)C(N)=O)C(=O)N[C@H](C)C(N)=O)C(N)=O` (some centres unmarked) [MTrP-DAP (amide/amide) 6c], the Kd [1, 3] is reported as 14.9 µM, the ka1 ([1]; Table S1, SPR) is reported as 342.8 and the ka2 ([1]; Table S1, SPR) is reported as 41.5 10^-3 s^-1. For the same compound, the kd1 ([1]; Table S1, SPR) was 57.8 10^-3 s^-1, the kd2 ([1]; Table S1, SPR) was 4.02 10^-3 s^-1 and the “Fold increase in viable cell number relative to cultures grown in Sauton's medium without additive” value [2, 4] was 9 fold. The “Fold increase in viable cell number relative to cultures grown in Sauton's medium without additive” value [2, 5] was 3 fold and the “increase in viability relative to cells in fresh medium alone” value [2] was “three; also recorded: nine-fold”.
For `CC(=O)N[C@H]1C(O)O[C@H](CO)[C@@H](O)[C@@H]1O[C@H](C)C(=O)N[C@@H](C)C(=O)N[C@H](CCC(=O)N[C@@H](CCC[C@@H](N)C(=O)O)C(N)=O)C(N)=O` (some centres unmarked) [MTP-DAP (amide/acid) 5], the ka1 ([1]; Table S1, SPR) was 5577, the ka2 ([1]; Table S1, SPR) was 1.64 10^-3 s^-1 and the kd1 ([1]; Table S1, SPR) was 172.9 10^-3 s^-1. The kd2 ([1]; Table S1, SPR) was 3.86 10^-3 s^-1.
For `CC(=O)N[C@H]1C(O)O[C@H](CO)[C@@H](O)[C@@H]1O[C@H](C)C(=O)N[C@@H](C)C(=O)N[C@H](CCC(=O)N[C@@H](CCCC(N)C(N)=O)C(=O)N[C@H](C)C(N)=O)C(=O)O` (some centres unmarked) [MTrP-DAP (acid/amide) 6b], the “binding to ED-PknB in words” value ([1]; SPR) was “did not show measurable binding”, the Kd [1, 6] was over 100 µM and the Kd [1, 3] was over 100 µM.
For `CC(=O)N[C@@H](C)C(=O)N[C@H](CCC(=O)N[C@@H](CCCC(N)C(=O)O)C(=O)N[C@H](C)C(=O)N[C@H](C)C(N)=O)C(N)=O` (some centres unmarked) [Peptide 8 (amide/amide)], the “binding to ED-PknB in words” value ([1]; SPR) was “Neither compound showed significant interaction”, the Kd [1, 6] was over 500 µM and the Kd [1, 3] was over 500 µM.
With `CC(=O)N[C@H]1C(O)O[C@H](CO)[C@@H](O)[C@@H]1O[C@H](C)C(=O)N[C@@H](C)C(=O)N[C@H](CCC(=O)N[C@@H](CCC[C@@H](N)C(=O)O)C(=O)N[C@H](C)C(N)=O)C(=O)O` (some centres unmarked) [MTrP-DAP (acid/acid) 6d] the “decrease in binding compared to compound 6a” value (“decrease in binding” below) ([1]; SPR) was “four-fold”, the ka1 ([1]; Table S1, SPR) was 1931 and the ka2 ([1]; Table S1, SPR) was 2.0 10^-3 s^-1. The kd1 ([1]; Table S1, SPR) was 168.7 10^-3 s^-1 and the kd2 ([1]; Table S1, SPR) was 3.2 10^-3 s^-1.
`CC(=O)N[C@H]1C(O)O[C@H](CO)[C@@H](O)[C@@H]1O[C@H](C)C(=O)N[C@@H](C)C(=O)N[C@H](CCC(=O)N[C@@H](CCCCN)C(=O)N[C@H](C)C(=O)N[C@H](C)C(N)=O)C(N)=O` (stereo partly drawn) [MPP-Lys (D-Ala) 3a] (Ac-[Mur]A[d(isoGln)]K[dA][dA]-NH2) was tested, and the Kd [1, 6] was over 500 µM and the Kd [1, 3] was over 500 µM.
With `CC(=O)N[C@H]1C(O)O[C@H](CO)[C@@H](O)[C@@H]1O[C@H](C)C(=O)N[C@@H](C)C(=O)N[C@H](CCC(=O)N[C@@H](CCC[C@@H](N)C(=O)O)C(=O)N[C@H](C)C(N)=O)C(N)=O` (some centres unmarked) [MTrP-DAP (amide/acid) 6a] the “binding to ED-PknB in words” value ([1]; SPR) was “exhibited the highest affinity”, the ka1 ([1]; Table S1, SPR) was 3451 and the ka2 ([1]; Table S1, SPR) was 1.83 10^-3 s^-1. For the same compound, the kd1 ([1]; Table S1, SPR) was 100.7 10^-3 s^-1 and the kd2 ([1]; Table S1, SPR) was 1.4 10^-3 s^-1.
For `CC(=O)N[C@H]1C(O)O[C@H](CO)[C@@H](O)[C@@H]1O[C@H](C)C(=O)N[C@@H](C)C(=O)N[C@H](CCC(=O)N[C@@H](CCCCN)C(=O)N[C@H](C)C(=O)NCC(N)=O)C(N)=O` (some centres unmarked) [MPP-Lys (Gly) 3b] (Ac-[Mur]A[d(isoGln)]K[dA]G-NH2), the Kd [1, 6] was over 500 µM, the Kd [1, 3] was over 500 µM and the “Fold increase in viable cell number relative to cultures grown in Sauton's medium without additive” value [2, 4] was 0.9 fold. For the same compound, the “Fold increase in viable cell number relative to cultures grown in Sauton's medium without additive” value [2, 5] was 1 fold and the “increase in viability relative to cells in fresh medium alone” value [2] was “No increase in viability”.
In the case of `CC(=O)N[C@H]1C(O)O[C@H](CO)[C@@H](O)[C@@H]1O[C@H](C)C(=O)N[C@@H](C)C(=O)N[C@H](CCC(=O)N[C@@H](CCC[C@@H](N)C(=O)O)C(=O)N[C@H](C)C(=O)N[C@H](C)C(N)=O)C(N)=O` (some centres unmarked) [MPP-DAP (amide/acid) 7], the “decrease in binding” value ([1]; SPR) is reported as “about two-fold”, the ka1 ([1]; Table S1, SPR) is reported as 4316 and the ka2 ([1]; Table S1, SPR) is reported as 1.4 10^-3 s^-1. The kd1 ([1]; Table S1, SPR) was 161.5 10^-3 s^-1 and the kd2 ([1]; Table S1, SPR) was 2.8 10^-3 s^-1.
`C[C@H](N)C(=O)N[C@H](CCC(=O)N[C@@H](CCCCN)C(=O)N[C@H](C)C(=O)N[C@H](C)C(N)=O)C(N)=O` [Peptide 4 (amide)] (H-A[d(isoGln)]K[dA][dA]-NH2; N-terminus assumed) was tested, and the “binding to ED-PknB in words” value ([1]; SPR) was “Neither compound showed significant interaction”.
`CC(=O)NCCCC[C@H](NC(=O)CC[C@@H](NC(=O)[C@H](C)NC(=O)[C@@H](C)O[C@H]1[C@H](O)[C@@H](CO)OC(O)[C@@H]1NC(C)=O)C(N)=O)C(=O)N[C@H](C)C(N)=O` (some centres unmarked) [MTrP-Lys (amide) NHAc 2b] gave a Kd [1, 6] of over 500 µM and a Kd [1, 3] of over 500 µM.
`CC(=O)N[C@H]1C(O)O[C@H](CO)[C@@H](O)[C@@H]1O[C@H](C)C(=O)N[C@@H](C)C(=O)N[C@H](CCC(=O)N[C@@H](CCCCN)C(N)=O)C(N)=O` (some centres unmarked) [MTP-Lys (amide) 1] was tested, and the Kd [1, 6] was over 500 µM and the Kd [1, 3] was over 500 µM.
For `CC(=O)N[C@H](CCC[C@H](NC(=O)CC[C@@H](NC(=O)[C@H](C)NC(=O)[C@@H](C)O[C@H]1[C@H](O)[C@@H](CO)OC(O)[C@@H]1NC(C)=O)C(N)=O)C(=O)N[C@H](C)C(N)=O)C(=O)O` (some centres unmarked) [MTrP-DAP(amide/acid)NHAc 6e], the “decrease in binding” value ([1]; SPR) was “six-fold”, the ka1 ([1]; Table S1, SPR) was 354.2 and the ka2 ([1]; Table S1, SPR) was 6.6 10^-3 s^-1. The kd1 ([1]; Table S1, SPR) was 106 10^-3 s^-1 and the kd2 ([1]; Table S1, SPR) was 2.2 10^-3 s^-1.
